Tests used:
Assay type in all cases: binding
[1] = biological target: T1, Growth factor receptor-bound protein-2 (GRB2) (Homo sapiens, UniProt P62993); test: SPR (GRB2 immobilized on CM5 chip); supported by competition ELISA with GST-GRB2 and cellulose nitrate filtration assay
[2] = biological target: T1, Growth factor receptor-bound protein-2 (GRB2); test: SPR (GRB2 immobilized on CM5 chip); authors call conditions sub-par for this compound
[3] = biological target: T1, Growth factor receptor-bound protein-2 (GRB2); test: SPR (GRB2 immobilized on CM5 chip); authors call conditions sub-par; only two non-zero concentrations shown
Description: SPR (GRB2 immobilized on CM5 chip); authors call conditions sub-par; only two non-zero concentrations shown on Growth factor receptor-bound protein-2 (GRB2) | SPR data of NHD2-107 versus GRB2.

Row | Kd [2] | also measured | Compound
1 |  | Kd [1]: 119 ± 2 µM | CC(=O)c1c(C)oc2nc3ccccc3nc12 [NHD2-15]
2 | 440 ± 7 µM |  | CCOC(=O)c1c(C)oc2nc3ccccc3nc12 [NHD2-114]
3 | 1000 ± 20 µM |  | COC(=O)c1c(C)oc2nc3ccccc3nc12 [NHD2-92]
4 |  | Kd [3]: 3400 ± 100 µM | CCOC(=O)c1c(-c2ccccc2)oc2nc3ccccc3nc12 [NHD2-107]
